Reference: US11773081B2, “Pharmaceutical composition for preventing or treating wound, comprising indirubin derivative as active ingredient” (CK Regeon Inc., priority 2018, dated 2023)
Entries after “also recorded” stand apart in the source; their conditions may differ.

Key:
diabetic wound = experiment: Wound healing effect in diabetic wound animal model (Test Example 8); format: in vivo, mouse
Procedure: 3-week-old male C57BL/6N mice (Koatech, South Korea) were used. After accustoming the mice for a week to normal feed, high-fat diet (Product Data—D12492; 60% kcal, hereinafter referred to as HFD) was given for 4 weeks. Then, a diabetes-induced animal model was prepared by intraperitoneally injecting 40 mg/kg streptozocin (Sigma) once daily for a week. The mice were kept in cages maintained at constant temperature (22±2° C.) and relative humidity (40-60%) with light/dark cycles of 12/12 hours.
6 mice of the normal control group and 6 mice per test group of the diabetes-induced animal model of Test Example 7 were prepared. The hair on the back was removed and a 1.5×1.5 cm^2 wound was made on the hair-removed region.
For the normal control group, only 20 μL of an emulsion solution (Kollipore®EL:Tween 80:PEG 400 at a mixing weight ratio of 80:6:14) was applied to the wound site once daily for 14 days. For the negative control group, only 20 μL of the emulsion solution (Kollipore®EL:Tween 80:PEG 400 at a mixing weight ratio of 80:6:14) was applied to the wound site once daily for 14 days. For the test group, 20 μL of A3334 (Example 1) was applied to the wound site once daily for 14 days. Then, the wound site of the animal model was photographed and the wound area was measured on days 0, 1, 3, 7, 10 and 14 (FIG. 10). On day 14, after euthanizing the mouse with carbon dioxide, the wound site tissue was harvested and the histological structure was observed.
A3334 (Example 1) was prepared by preparing an emulsion solution by mixing Kollipore®EL:Tween 80:PEG 400 at a mixing weight ratio of 80:6:14 and then dissolving the A3334 indirubin derivative synthesized in Example 1 to a concentration of 0.5 mM.
The wound closure rate (%) was calculated according to Equation 1. Wound closure rate (%)=[initial wound area on day 0−wound area on measurement day]/[initial wound area on day 0]×100 [Equation 1] […]

mouse acute wound [1] = experiment: Wound healing effect of extract and indirubin derivative mixtures in mouse acute wound (Test Example 6); format: in vivo; conditions: mouse acute wound tissue, fluorescence staining
Procedure: Wound healing-promoting effect was investigated after treating an animal model with the indirubin derivative of Example 1 (0.5 mM), the indirubin derivative of Example 2 (0.5 mM) or the mixtures of Examples 12 and 13 (0.5 mM indirubin derivative mixed with 1 μg/mL Euodia sutchuenensis Dode extract).
The hair on the back of 7-week-old C3H mouse that entered the resting period was removed and a 1.5×1.5 cm^2 wound was made on the hair-removed region. A sample was applied to a positive control group, once daily for 12 days. After measuring wound size of the experimental animal on days 0 and 12, the wound tissue was fixed by immersing in 4% paraformaldehyde, embedded in paraffin and then sliced into 4 μm thickness. The sliced tissue was deparaffinized, rehydrated and then the degree of re-epithelialization was compared. Masson's trichrome staining and Picrosirius red staining were conducted for evaluation of the degree of collagen synthesis. For Masson's trichrome staining, a slide was immersed in Weigert's iron hematoxylin solution for 10 minutes and in Biebrich scarlet-acid fuchsin and aniline blue for 5 minutes each. […] The sliced skin tissue was fluorescence-stained using β-catenin, PCNA, keratin 14 and collagen I antibodies and was observed using a fluorescence microscope (FIG. 9a). […]

mouse acute wound [2] = experiment: Wound healing and collagen synthesis in mouse acute wound (Test Example 2); format: in vivo
Procedure: The wound healing-promoting effect of the indirubin derivatives prepared in Examples 1 and 2, the indirubin derivative of Comparative Example 1 (10) and EGF, known as an existing wound healing agent, as a positive control group was investigated through animal experiments.
The hair on the back of 7-week-old C3H mouse that entered the resting period was removed and a 1.5×1.5 cm^2 wound was made on the hair-removed region. 20 μL of a vehicle (10% DMSO, 45% ethanol, 18% propylene glycol, 27% water) and the indirubin derivative of Comparative Example 1 (10) were applied to a control group and a comparison group, respectively, once daily for 12 days. For the positive control group, 100 μM EGF was applied once daily for 12 days. For a first test group, 20 μL of the indirubin derivative of Example 2 (A3051) was applied once daily for 12 days. For a second test group, 20 μL of the indirubin derivative of Example 1 (A3334) was applied once daily for 12 days.
The tissue of each experimental mouse was fixed by immersing in 4% paraformaldehyde, embedded in paraffin and then sliced into 4 μm thickness. The sliced tissue was deparaffinized, rehydrated and then stained with Masson's trichrome and Picrosirius red for evaluation of the degree of collagen synthesis. For Masson's trichrome staining, a slide was placed in Weigert's iron hematoxylin solution for 10 minutes and in Biebrich scarlet-acid fuchsin and aniline blue for 5 minutes each. For Picrosirius red staining, a slide was placed in Weigert's solution for 8 minutes and in Picrosirius red for 1 hour.

[3] = C3H mouse acute wound, once daily for 12 days, vs EGF

COc1ccc2c(c1)/C(=C1/Nc3ccccc3/C1=N\O)C(=O)N2 [Example 1, 5-methoxylindirubin-3′-oxime]
healing of the wound site (wound closure rate) (diabetic wound; diabetes-induced C57BL/6N mouse, 1.5×1.5 cm^2 wound, 20 μL of 0.5 mM once daily for 14 days): healing of the wound site was promoted similarly to the normal control group
re-epithelialization (H&E) (diabetic wound; diabetes-induced mouse, 14 days): fast re-epithelialization
collagen synthesis (Van Gieson's stain, Picrosirius red) (diabetic wound; diabetes-induced mouse, vs normal and negative control group): increased collagen synthesis
expression of β-catenin, PCNA, keratin 14 and collagen I (mouse acute wound [1]): slightly lower as compared to the positive control group
quantity of collagen (Masson's trichrome, Picrosirius red, van Gieson's stain) (mouse acute wound [2]; C3H mouse acute wound tissue, vs control group, Comparative Example 1, positive control group): remarkably increases the quantity of collagen
re-epithelialization of acute wound (mouse acute wound [2]; [3]): re-epithelialized comparably to or faster than the positive control group EGF
scar-reducing effect, repair of the epidermal layer of skin (mouse acute wound [2]; [3]): repairing the epidermal layer of skin without remaining scars
wound repair effect as compared to the positive control group EGF (mouse acute wound [2]; C3H mouse, 1.5×1.5 cm^2 wound, 20 μL once daily for 12 days, EGF 100 μM, listed as A3334): slightly superior wound repair effect; also recorded: slightly better wound repair effect
